The values that follow come from patent publication US20150291625A1 (PFIZER INC., priority 2012, published 2015).

Experiment [1] deals with T1, D1 (Homo sapiens, UniProt P21728). Briefly: D1 cAMP HTRF assay (HEK293T/hD1#1 stable cell line). It is filed as cell-based. More on the design: expressed in transfected cells. In short, it runs like this:
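Cells from a stable human D1 HEK293T line in PBS/0.5 μM IBMX were incubated with compound for 30 min at room temperature, and cAMP was then detected by competitive HTRF (1 h, room temperature). A cAMP standard curve converted ratios to cAMP, giving ratio-based and cAMP-based EC50 values.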
A general note: Time-resolved FRET reads energy transfer from a long-lived donor to a nearby acceptor.

Experiment [2] has as its target T1, D1. Nature of the experiment: Human D1 receptor binding assay ([3H]-SCH23390 competition). Conditions: Human D1 Receptor Binding, Ki (nM), Geometric mean of 2-4 determinations, a: >=5 determinations, d: single determination.

“And” between values parts separate entries of the source, which are not always exact repeats. Equal entries are not always repeated. Structures can show the parent of a compound that is named as a salt. Some results are limits rather than exact numbers.

T1 sequence (P21728 whole entry): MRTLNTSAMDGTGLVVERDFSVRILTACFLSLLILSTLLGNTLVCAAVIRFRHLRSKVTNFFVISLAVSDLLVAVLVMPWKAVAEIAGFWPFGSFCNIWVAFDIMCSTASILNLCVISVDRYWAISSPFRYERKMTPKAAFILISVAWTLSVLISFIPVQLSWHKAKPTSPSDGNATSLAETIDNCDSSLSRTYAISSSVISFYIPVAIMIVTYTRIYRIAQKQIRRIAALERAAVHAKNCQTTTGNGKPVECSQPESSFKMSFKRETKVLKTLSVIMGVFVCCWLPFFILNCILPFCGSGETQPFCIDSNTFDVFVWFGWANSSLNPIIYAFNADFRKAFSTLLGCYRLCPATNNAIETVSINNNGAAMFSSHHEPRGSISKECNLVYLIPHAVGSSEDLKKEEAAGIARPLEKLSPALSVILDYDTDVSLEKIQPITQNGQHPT

With `Cc1cc(Oc2nccc3occc23)ccc1-c1c(C)c(O)nc2nccn12` [Example 133, 5-[4-(furo[3,2-c]pyridin-4-yloxy)-2-methylphenyl]-6-methylimidazo[1,2-a]pyrimidin-7-ol], the response at D1 [1] was half-maximal at 172 nM (EC50). For the same molecule, the Ki (in general, a dissociation constant, usually derived from enzyme kinetics or from competition with a known ligand) at D1 [2] is 31.5 nM.
`Cc1ncc2nccn2c1-c1ccc(Oc2nccc3occc23)cc1O` [Example 57, 5-(furo[3,2-c]pyridin-4-yloxy)-2-(6-methylimidazo[1,2-a]pyrazin-5-yl)phenol]: the EC50 (usually the concentration at which the effect is half-maximal) on D1 [1] was determined as 116 nM. For the same molecule, the Ki on D1 [2] was determined as 17.4 nM.
As to `COc1ncnc(C)c1-c1ccc(Oc2nccc3occc23)cc1F` [Example 76, 4-[3-fluoro-4-(4-methoxy-6-methylpyrimidin-5-yl)phenoxy]furo[3,2-c]pyridine], the EC50 on D1 [1] was 903 nM and 2170 nM. For the same molecule, at D1 [2], the affinity corresponds to a Ki of 139 nM.
In turn, `Cc1cc(Oc2nccc3occc23)ccc1-c1c(C)ncnc1N1CCC(CO)C1` (stereo not drawn) [Example 179, (1-{5-[4-(furo[3,2-c]pyridin-4-yloxy)-2-methylphenyl]-6-methylpyrimidin-4-yl}pyrrolidin-3-yl)methanol, formate salt] gave a 50% effective concentration (EC50) on D1 [1] of 921 nM. This molecule also gave a Ki at D1 [2] of 47.2 nM.
For the molecule `Cc1cnccc1-c1c(C)cc(Oc2nccc3occc23)cc1C` [Example 29, 4-[3,5-Dimethyl-4-(3-methylpyridin-4-yl)phenoxy]furo[3,2-c]pyridine], on D1 [1], the response was half-maximal at 2820 nM (EC50). This molecule also returned an inhibition constant Ki at D1 [2] of 329 nM.
On D1 [1], `Cc1cc(Sc2nccc3occc23)ccc1-c1c(C)ncnc1C` [Example 155, 4-{[4-(4,6-dimethylpyrimidin-5-yl)-3-methylphenyl]sulfanyl}furo[3,2-c]pyridine] gave an EC50 of 1010 nM. The molecule further gave an inhibition constant (Ki) at D1 [2] of 138 nM.
In turn, `Cc1cc(Oc2nccc3occc23)ccc1-c1c(C)cnc2nccn12` (single isomer, unassigned) [Example 146, 5-[4-(furo[3,2-c]pyridin-4-yloxy)-2-methylphenyl]-6-methylimidazo[1,2-a]pyrimidine] came in with a 50% effective concentration (EC50) at D1 [1] of 324 nM. On D1 [2], this molecule yielded an inhibitory constant (Ki) of 49.7 nM.
Consider `Cc1nc(O)nc(C)c1-c1ccc(Oc2nccc3occc23)cc1` [Example 79, 5-[4-(furo[3,2-c]pyridin-4-yloxy)phenyl]-4,6-dimethylpyrimidin-2-ol], for which the EC50 at D1 [1] is 2550 nM and 1680 nM. Moreover, on D1 [2], the affinity, expressed as Ki, was 140 nM.
`CO[C@H]1CCN(c2ncnc(C)c2-c2ccc(Oc3nccc4occc34)cc2C)C1` [Example 202, 4-(4-{4-[(3S)-3-methoxypyrrolidin-1-yl]-6-methylpyrimidin-5-yl}-3-methylphenoxy)furo[3,2-c]pyridine, trifluoroacetate salt] showed an EC50 on D1 [1] of 1290 nM. At D1 [2], the affinity corresponds to a Ki of 114 nM.
For `Cc1cc(Oc2nccc3occc23)cc(C)c1-c1c(C)ncc2nccn12` [Example 162], the EC50 on D1 [1] was 251 nM and 446 nM. Moreover, the Ki on D1 [2] is 10.6 nM.
Molecule `Cc1ncnc(C)c1-c1ccc(Oc2nccc3occc23)cc1Cl` [Example 127, 4-[3-chloro-4-(4,6-dimethylpyrimidin-5-yl)phenoxy]furo[3,2-c]pyridine] showed a concentration giving a half-maximal response (EC50) at D1 [1] of 127 nM. Further, the inhibition constant Ki on D1 [2] stood at 14 nM.
The corresponding values for `Cc1cc(Oc2nccc3occc23)ccc1-c1c(C)nc(O)c2nccn12` (single isomer, unassigned) [Example 105, 5-[4-(furo[3,2-c]pyridin-4-yloxy)-2-methylphenyl]-6-methylimidazo[1,2-a]pyrazin-8-ol] are 297 nM and 24.8 nM.
The corresponding values for `Cc1cc(Oc2nccc3occc23)ccc1-c1c(C)ncnc1N1CC(O)C1` [Example 203, 1-{5-[4-(furo[3,2-c]pyridin-4-yloxy)-2-methylphenyl]-6-methylpyrimidin-4-yl}azetidin-3-ol, formate salt] are 799 nM and 118 nM.
In the case of `Cc1cc(Oc2nccc3occc23)ccc1-c1c(C)ncnc1C#N` (single isomer, unassigned) [Example 82, (+)-5-[4-(furo[3,2-c]pyridin-4-yloxy)-2-methylphenyl]-6-methylpyrimidine-4-carbonitrile], the EC50 at D1 [1] was 113 nM and 781 nM. The molecule also yielded a Ki at D1 [2] of 21.3 nM.
On D1 [1], `Cc1cc(Oc2nccc3occc23)ccc1-c1c(C)nc(O)nc1C` [Example 152, 5-[4-(furo[3,2-c]pyridin-4-yloxy)-2-methylphenyl]-4,6-dimethylpyrimidin-2-ol] displayed a 50% effective concentration (EC50) of 565 nM. The same molecule displayed a Ki at D1 [2] of 79.5 nM.
`Cc1cc(Oc2nccc3occc23)ccc1-c1c(C)cn[nH]c1=O` [Example 10, 4-[4-(Furo[3,2-c]pyridin-4-yloxy)-2-methylphenyl]-5-methylpyridazin-3(2H)-one, bis-hydrochloride salt] returned an EC50 on D1 [1] of more than 30000 nM. The same molecule showed an inhibition constant (Ki) at D1 [2] of 2280 nM.
Consider `Cc1cc(Oc2nccc3occ(C#N)c23)ccc1-c1c(C)ncnc1C` [Example 210, 4-[4-(4,6-dimethylpyrimidin-5-yl)-3-methylphenoxy]furo[3,2-c]pyridine-3-carbonitrile], for which the midpoint of the response at D1 [1], the EC50, lay at 655 nM. The same molecule displayed a Ki at D1 [2] of 18.8 nM.
Molecule `Cc1cc(Oc2nccc3occc23)ccc1-c1ccnnc1C` [Example 145, 4-[3-methyl-4-(3-methylpyridazin-4-yl)phenoxy]furo[3,2-c]pyridine] displayed an EC50 on D1 [1] of 1440 nM. Besides, at D1 [2], affinity was put at a Ki of 110 nM.
The corresponding values for `Cc1ncnc(C)c1-c1cc(F)c(Oc2nccc3occc23)c(F)c1` [Example 128, 4-[4-(4,6-dimethylpyrimidin-5-yl)-2,6-difluorophenoxy]furo[3,2-c]pyridine] are 5480 nM and 379 nM.
The corresponding values for `Cc1ncnc(C)c1-c1ccc(Oc2nccc3occc23)c2cn(C)nc12` [Example 144, 4-{[7-(4,6-dimethylpyrimidin-5-yl)-2-methyl-2H-indazol-4-yl]oxy}furo[3,2-c]pyridine] are 3490 nM and 246 nM.
In the case of `CCC(=O)COc1cc(Oc2nccc3occc23)ccc1-c1cccc2nccn12` [Example 41, 1-[5-(furo[3,2-c]pyridin-4-yloxy)-2-(imidazo[1,2-a]pyridin-5-yl)phenoxy]butan-2-one, trifluoroacetate salt], at D1 [1], the EC50 was determined as 517 nM. This molecule returned an inhibitory constant (Ki) on D1 [2] of 72.1 nM.
`Cc1cccnc1COc1cc(Oc2nccc3occc23)ccc1-c1nccnc1C` [Example 68, 4-{4-(3-methylpyrazin-2-yl)-3-[(3-methylpyridin-2-yl)methoxy]phenoxy}furo[3,2-c]pyridine, formate salt] came in with a half-maximal effective concentration (EC50) at D1 [1] of 1480 nM. This molecule also showed a Ki on D1 [2] of 154 nM.
In turn, `Cc1nccnc1-c1ccc(Oc2nccc3occc23)cc1OCc1c(C)noc1C` [Example 66, 4-{3-[(3,5-dimethyl-1,2-oxazol-4-yl)methoxy]-4-(3-methylpyrazin-2-yl)phenoxy}furo[3,2-c]pyridine, formate salt] returned an EC50 on D1 [1] of 737 nM. Also, the Ki at D1 [2] amounted to 85.4 nM.
`Cc1cc(Oc2nccc3occc23)ccc1-c1c(C)cnc2nccn12` (single isomer, unassigned) [Example 147, 5-[4-(furo[3,2-c]pyridin-4-yloxy)-2-methylphenyl]-6-methylimidazo[1,2-a]pyrimidine] yielded an EC50 at D1 [1] of 68 nM. Also, at D1 [2], the inhibitory constant (Ki) came to 3.6 nM.
Take `Cc1cc(Oc2nccc3occc23)ccc1-c1c(C)nc(C)c2nccn12` [Example 109, 5-[4-(furo[3,2-c]pyridin-4-yloxy)-2-methylphenyl]-6,8-dimethylimidazo[1,2-a]pyrazine]: at D1 [1], the concentration for a half-maximal effect (EC50) came to 429 nM. This molecule also returned an inhibition constant Ki on D1 [2] of 57.5 nM.
Take `Cc1cc(Oc2nccc3occc23)ccc1-c1ccc(O)c2nccn12` [Example 137, 5-[4-(furo[3,2-c]pyridin-4-yloxy)-2-methylphenyl]imidazo[1,2-a]pyridin-8-ol]: it took 209 nM to reach a half-maximal effect at D1 [1] (EC50). On D1 [2], this molecule had a Ki of 42 nM.
Consider `Cc1cc(Oc2nccc3occc23)ccc1-c1cccnc1C1CC1` [Example 88, 4-[4-(2-cyclopropylpyridin-3-yl)-3-methylphenoxy]furo[3,2-c]pyridine], for which the 50% effective concentration (EC50) at D1 [1] was 710 nM and 1520 nM. For the same molecule, on D1 [2], affinity was put at a Ki of 117 nM.
On D1 [1], `O=C(COc1cc(Oc2nccc3occc23)ccc1-c1cccc2nccn12)NC1CC1` [Example 43, N-cyclopropyl-2-[5-(furo[3,2-c]pyridin-4-yloxy)-2-(imidazo[1,2-a]pyridin-5-yl)phenoxy]acetamide, trifluoroacetate salt] had a concentration for a half-maximal effect (EC50) of 605 nM. Moreover, the inhibition constant Ki at D1 [2] was 211 nM.
Turning to `Cc1cc(Oc2nccc3occc23)ccc1-c1c(C)ncnc1N1CC[C@H](F)C1` [Example 163, 4-(4-{4-[(3S)-3-fluoropyrrolidin-1-yl]-6-methylpyrimidin-5-yl}-3-methylphenoxy)furo[3,2-c]pyridine, formate salt], the 50% effective concentration (EC50) at D1 [1] came out at 389 nM. Besides, the inhibition constant Ki on D1 [2] amounted to 12.8 nM.
With `Cc1cc(Oc2nccc3occ(C)c23)ccc1-c1c(C)ncnc1C` [Example 22, 4-[4-(4,6-Dimethylpyrimidin-5-yl)-3-methylphenoxy]-3-methylfuro[3,2-c]pyridine], at D1 [1], the 50% effective concentration (EC50) was 774 nM and 1340 nM. Further, the Ki at D1 [2] was found to be 162 nM.
The molecule `Cc1cc(Oc2nccc3occc23)ccc1-c1c(C)ncnc1N1Cc2cn[nH]c2C1` [Example 96, 4-{4-[4-(4,6-dihydropyrrolo[3,4-c]pyrazol-5(1H)-yl)-6-methylpyrimidin-5-yl]-3-methylphenoxy}furo[3,2-c]pyridine, trifluoroacetate salt] returned an EC50 on D1 [1] of 306 nM. Further, the inhibition constant (Ki) on D1 [2] worked out at 24.5 nM.
The corresponding values for `Cc1cc(Oc2nccc3occc23)ccc1-c1cccnc1C` [Example 52, 4-[3-methyl-4-(2-methylpyridin-3-yl)phenoxy]furo[3,2-c]pyridine] are 463 nM and 53 nM.
Consider `Cc1cc(Oc2nccc3occc23)ccc1-c1c(C)ncnc1N1CCCC1CO` (stereo not drawn) [Example 187, (1-{5-[4-(furo[3,2-c]pyridin-4-yloxy)-2-methylphenyl]-6-methylpyrimidin-4-yl}pyrrolidin-2-yl)methanol, trifluoroacetate salt], for which, at D1 [1], the EC50 turned out to be 984 nM. On D1 [2], this molecule had a Ki of 65.7 nM.
